Experimental data from patent US20090304813A1, “VIRUCIDAL COMPOSITIONS AND USES” (priority 2006, published 2009).

Experiments:
[1] = Tox controls of the oral treatment study in mice (Table 3); conditions: 75 mg/kg/day p.o., bid × 5 beg −4 h; initial weight vs 18 h after final treatment
[2] = system: Influenza A/Duck/MN/1525/81 (H5N1); design: species or system BALB/c mice; conditions: mouse, in vivo

Structure (SMILES)	Tox Controls Mean Host Weight Change [1] [g]	Number of surviving mice per group at day 19 [2]	surviving mice per group at day 19, percent [2]
NC(=O)c1ncn([C@@H]2O[C@H](CO)[C@@H](O)[C@H]2O)n1 [Ribavirin]	-0.8		
CCOC(=O)C1=C[C@@H](OC(CC)CC)[C@H](NC(C)=O)[C@@H](N)C1 [Tamiflu ™, oseltamivir phosphate]		10/10 [100%]	10/10 [100%]
